Laboratory results as given in publication PMC3958426, “Prolonged Calcitonin Receptor Signaling by Salmon, but Not Human Calcitonin, Reveals Ligand Bias” (PLoS ONE, 2014).

Experiments:
[1] = molecular target: T1, human calcitonin receptor (CT(a)R), U2OS CALCR membranes (Homo sapiens, UniProt P30988); experiment: Ligand association on isolated U2OS CALCR membranes; assay type: binding; details: ^125I ligand 0.25 nM; for association constant KON, membranes: room temperature (∼22°C), 20 mM HEPES, 1 mM CaCl2, 5 mM MgCl2, nonspecific with 250 nM unlabeled sCT, triplicate, mean ± SEM; for time to plateau of specific binding, membranes: ∼22°C
T1 construct: host or cells: U2OS (PathHunter U2OS CALCR β-arrestin cell line)
T1 sequence (P30988 25-474): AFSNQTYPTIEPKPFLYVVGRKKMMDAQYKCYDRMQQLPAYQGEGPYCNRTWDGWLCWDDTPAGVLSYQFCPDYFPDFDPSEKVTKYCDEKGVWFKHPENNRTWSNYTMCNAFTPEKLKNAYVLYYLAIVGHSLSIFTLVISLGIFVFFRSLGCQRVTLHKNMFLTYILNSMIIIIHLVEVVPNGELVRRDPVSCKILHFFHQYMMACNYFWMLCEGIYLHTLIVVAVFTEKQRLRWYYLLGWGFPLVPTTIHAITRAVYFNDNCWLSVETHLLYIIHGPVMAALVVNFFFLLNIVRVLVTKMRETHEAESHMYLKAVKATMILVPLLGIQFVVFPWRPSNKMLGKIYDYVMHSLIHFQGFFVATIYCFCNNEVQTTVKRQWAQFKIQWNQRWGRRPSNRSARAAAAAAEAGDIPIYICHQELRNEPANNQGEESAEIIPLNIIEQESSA
Description: The binding kinetics of ^125I-(Tyr 22)-sCT and ^125I-(Tyr 12)-hCT were assessed using isolated membranes from Cos-7 CT(a)R or U2OS CALCR. Concentration of radio-labeled ligand was 0.25 nM unless otherwise specified. Membranes were isolated and purified as previously described. Membrane protein content was determined with a NanoDrop 1000 (Thermo Scientific). In general, radio-labeled ligand and membrane were mixed in binding buffer (20 mM HEPES, 1 mM CaCl2, 5 mM MgCl2) with complete protease inhibitor (11836170001, Roche), each condition in triplicate, in 96-well plates and incubation at room temperature (∼22°C) with shaking. Ligand association: The radio-labeled ligand was incubated with the membrane and the membrane-bound radioactivity was determined as described above at specific time points 2½, 5, 10, 20, 40, 80 and 160 min. Nonspecific binding was determined at each time point with co-incubation of 250 nM unlabeled sCT. Ligand dissociation: The radio-labeled ligand and membrane were incubated for one hour to allow ligand-receptor saturation. Dissociation was monitored following the addition of 250 nM unlabeled sCT to prevent rebinding of dissociated radio-ligand. The membrane-bound radioactivity (total binding) was determined at time 0, 1, 2, 4, 6, 24, 48 and 72 h after the initiation of dissociation. Competitive ligand binding: The radio-labeled ligand and membrane were co-incubated with one of seven different concentrations of corresponding unlabeled ligand (1 μM sCT or hCT with a fivefold dilution row) for one hour. Post incubation sample extraction: The binding mixtures were transferred to 1.5 ml Eppendorf tubes and centrifuged at 17,000 g (4°C for 5 min). Membrane pellets were washed with cold binding buffer, resuspended and then re-centrifuged (17,000 g, 4°C for 5 min).
(§1) Samples, resuspended pellet or solubilized cell membrane, were transferred to borosilicate tubes and bound radioactivity was measured using a 1470 Wallac Wizard Gamma Counter.

[2] = molecular target: T2, human calcitonin receptor (CT(a)R), U2OS CALCR cells (Homo sapiens, UniProt P30988); experiment: Ligand association on live U2OS CALCR cells; assay type: binding; details: 37°C
T2 construct: host or cells: U2OS (PathHunter U2OS CALCR β-arrestin cell line)
T2 sequence (P30988 25-474): T1 sequence (P30988 25-474)
Description: 15,000 U2OS CALCR cells/well were seeded into 96 well culture plates the day prior to the experiment. All cell based binding kinetics studies were made identical in terms of ‘hot’ and ‘cold’ ligand concentrations and incubation times to match membrane studies. Post incubation sample extraction: The binding mixture and cells were mixed in culture medium in triplicates in 96-well plates and incubated at 37°C. At the end of the incubation, the binding mixture was removed and cells were washed three times in PBS to remove residual unbound ligand. 200 μL 0.5 M NaOH was added to each well and cells were allowed to solubilize for at least 20 min.
as §1

CT(a)R = details: live cells; cited from earlier work
Excerpt: The calcitonins (CT) are a group of evolutionary conserved 32 amino acid peptide hormones, which have been isolated from many different species over the last 50 years and divided into several distinct groups based on structure and sequence. The calcitonins bind to the calcitonin receptor (CT(a)R), which belongs to the class B subfamily of G-protein coupled receptors (GPCRs), [3]. […] […].

[3] = cited from earlier work
Excerpt: (§2) The calcitonins (CT) are a group of evolutionary conserved 32 amino acid peptide hormones, which have been isolated from many different species over the last 50 years and divided into several distinct groups based on structure and sequence. The calcitonins bind to the calcitonin receptor (CT(a)R), which belongs to the class B subfamily of G-protein coupled receptors (GPCRs), [3].

amylin receptor (AMY-R) = details: isolated membranes; cited from earlier work
Excerpt: as §2

Substance	association constant KON, membranes [1]	time to plateau of specific binding, membranes [1]	peak binding, live cells, ^125I-hCT vs ^125I-sCT [2]	specific binding after 180 min compared to 20 min, live cells ([2]; ^125I ligand 0.25 nM)	time of maximal specific binding, live cells ([2]; ^125I ligand 0.25 nM)	reversibility of binding (CT(a)R)	duration of biological activity in vivo [3]	dissociation from the amylin receptor (amylin receptor (AMY-R))	time to plateau of specific binding, live cells ([2]; ^125I ligand 0.25 nM)	association constant KON, live cells ([2]; ^125I ligand 0.25 nM, triplicate, mean ± SEM)
^125I-(Tyr12)-hCT [^125I-hCT]	2.1±0.3×10^9 M^−1min^−1	~8 min	similar	< 20%	20 min	fully reversible				
davalintide							prolonged biological activity in vivo	dissociated very slowly		
^125I-(Tyr22)-sCT [^125I-sCT]	3.1±0.5×10^9 M^−1min^−1	~8 min	similar						180 min	1.1±0.1×10^8 M^−1min^−1
amylin (KCNTATCATQRLANFLVHSSNNFGAILSSTNVGSNTY; Islet amyloid polypeptide; UniProt P10997 34-70, looked up)								fully reversible		
